Values after ≈ are worked out from the molar mass of the structure shown. Active and inactive are the calls of the source. The calls are words filed in the database; no cut-off is given here.
Key:
Staphylococcus aureus [1] = test: Antibacterial activity against methicillin-resistant Staphylococcus aureus clinical isolate 202313160 assessed as bacterial growth inhibition measured after 20 hrs by broth dilution method; assay type: functional
[2] = tested on: Staphylococcus epidermidis; test: Antibacterial activity against methicillin-resistant Staphylococcus epidermidis clinical isolate 202409139 assessed as bacterial growth inhibition measured after 20 hrs by broth dilution method; assay type: functional
Staphylococcus aureus [3] = test: Drug resistance, ratio of MIC for Staphylococcus aureus ATCC 33591 after 9 days to MIC for methicillin-resistant Staphylococcus aureus ATCC 33591 after initial exposure; assay type: functional; conditions: time 9 day
Streptococcus pneumoniae [4] = test: Antibacterial activity against penicillin-resistant Streptococcus pneumoniae ATCC 51916 assessed as bacterial growth inhibition measured after 20 hrs by broth dilution method; assay type: functional
Staphylococcus aureus [5] = test: Bactericidal activity against methicillin-resistant Staphylococcus aureus ATCC 33591 at 4 to 8 times MIC measured within 24 hrs by time kill assay; assay type: functional, organism-based
Staphylococcus aureus [6] = test: Ratio of MBC to MIC against methicillin-resistant Staphylococcus aureus ATCC 33591; assay type: functional
Staphylococcus aureus [7] = test: Antibacterial activity against methicillin-resistant Staphylococcus aureus ATCC 33591 infected in female C57 mouse systemic infection model assessed as reduction in bacterial load in lung at 40 mg/kg, iv administered twice daily and measured after 7 days; assay type: functional; conditions: time 7 day
Staphylococcus aureus [8] = test: Antibacterial activity against methicillin resistant Staphylococcus aureus ATCC 33591 assessed as post antibiotic effect at 4 times MIC by time kill assay; assay type: functional
Staphylococcus aureus [9] = test: Antibacterial activity against methicillin-resistant Staphylococcus aureus ATCC 33591 infected in female C57 mouse systemic infection model assessed as reduction in bacterial load in kidney at 40 mg/kg, iv administered twice daily and measured after 7 days; assay type: functional; conditions: time 7 day
Staphylococcus aureus [10] = test: Antibacterial activity against methicillin-resistant Staphylococcus aureus ATCC 33591 infected in female C57 mouse systemic infection model assessed as effective dose; assay type: functional
Streptococcus pneumoniae [11] = test: Ratio of MBC to MIC against penicillin-intermediate Streptococcus pneumoniae ATCC 49619; assay type: functional
Enterococcus faecium [12] = test: Antibacterial activity against vancomycin-resistant Enterococcus faecium ATCC 700221 assessed as bacterial growth inhibition measured after 20 hrs by broth dilution method; assay type: functional
Enterococcus faecium [13] = test: Antibacterial activity against vancomycin-resistant Enterococcus faecium clinical isolate 202308456 assessed as bacterial growth inhibition measured after 20 hrs by broth dilution method; assay type: functional
[14] = tested on: Staphylococcus epidermidis; test: Ratio of MBC to MIC against Staphylococcus epidermidis ATCC 51625; assay type: functional
[15] = tested on: Staphylococcus epidermidis; test: Antibacterial activity against Staphylococcus epidermidis ATCC 51625 assessed as bacterial growth inhibition measured after 20 hrs by broth dilution method; assay type: functional
Staphylococcus aureus [16] = test: Antibacterial activity against methicillin-resistant Staphylococcus aureus ATCC 33591 infected in female C57 mouse systemic infection model assessed as reduction in bacterial load in heart at 40 mg/kg, iv administered twice daily and measured after 7 days; assay type: functional; conditions: time 7 day
Staphylococcus aureus [17] = test: Antibacterial activity against methicillin-resistant Staphylococcus aureus ATCC 33591 assessed as bacterial growth inhibition measured after 20 hrs by broth dilution method; assay type: functional
Staphylococcus aureus [18] = test: Antibacterial activity against methicillin-resistant Staphylococcus aureus clinical isolate 202311772 assessed as bacterial growth inhibition measured after 20 hrs by broth dilution method; assay type: functional
Staphylococcus aureus [19] = test: Antibacterial activity against methicillin-resistant Staphylococcus aureus ATCC 43300 assessed as bacterial growth inhibition measured after 20 hrs by broth dilution method; assay type: functional
Staphylococcus aureus [20] = test: Ratio of MBC to MIC against methicillin-resistant Staphylococcus aureus clinical isolate 202405157; assay type: functional
Enterococcus faecium [21] = test: Ratio of MBC to MIC against vancomycin-resistant Enterococcus faecium clinical isolate 202308456; assay type: functional
Staphylococcus aureus [22] = test: Antibacterial activity against methicillin-resistant Staphylococcus aureus ATCC 33591 infected in female C57 mouse systemic infection model assessed as reduction in bacterial load in liver at 40 mg/kg, iv administered twice daily and measured after 7 days; assay type: functional; conditions: time 7 day
Enterococcus faecium [23] = test: Ratio of MBC to MIC against vancomycin-resistant Enterococcus faecium ATCC 700221; assay type: functional
[24] = tested on: Staphylococcus epidermidis; test: Antibacterial activity against methicillin-resistant Staphylococcus epidermidis clinical isolate 202409454 assessed as bacterial growth inhibition measured after 20 hrs by broth dilution method; assay type: functional
Enterococcus faecium [25] = test: Ratio of MBC to MIC against vancomycin-resistant Enterococcus faecium ATCC 51559; assay type: functional
Staphylococcus aureus [26] = test: Ratio of MBC to MIC against methicillin-resistant Staphylococcus aureus clinical isolate 202311772; assay type: functional
Staphylococcus aureus [27] = test: Induction of morphological changes in methicillin-resistant Staphylococcus aureus ATCC 33591 assessed as changes in cell surface at 1 time MIC measured after 4 hrs by SEM analysis; assay type: functional, organism-based
Streptococcus pneumoniae [28] = test: Antibacterial activity against penicillin-intermediate Streptococcus pneumoniae ATCC 49619 assessed as bacterial growth inhibition measured after 20 hrs by broth dilution method; assay type: functional
Enterococcus faecium [29] = test: Antibacterial activity against vancomycin-resistant Enterococcus faecium ATCC 51559 assessed as bacterial growth inhibition measured after 20 hrs by broth dilution method; assay type: functional
Staphylococcus aureus [30] = test: Ratio of MBC to MIC against Staphylococcus aureus ATCC 43300; assay type: functional
Staphylococcus aureus [31] = test: Antibacterial activity against methicillin resistant Staphylococcus aureus ATCC 33591 assessed as post antibiotic effect at 2 times MIC by time kill assay; assay type: functional
Staphylococcus aureus [32] = test: Antibacterial activity against methicillin-resistant Staphylococcus aureus ATCC 33591 infected in female C57 mouse systemic infection model assessed as reduction in bacterial load in spleen at 40 mg/kg, iv administered twice daily and measured after 7 days; assay type: functional; conditions: time 7 day
Staphylococcus aureus [33] = test: Drug resistance, ratio of MIC for Staphylococcus aureus ATCC 33591 after 8 days to MIC for methicillin-resistant Staphylococcus aureus ATCC 33591 after initial exposure; assay type: functional; conditions: time 8 day
Staphylococcus aureus [34] = test: Antibacterial activity against methicillin-resistant Staphylococcus aureus clinical isolate 202405157 assessed as bacterial growth inhibition measured after 20 hrs by broth dilution method; assay type: functional
Staphylococcus aureus [35] = test: Antibacterial activity against Staphylococcus aureus ATCC 25923 assessed as reduction in GFP expression at 1 to 4 times MIC measured after 1 hr by fluorescence microscopy based analysis; assay type: functional, organism-based

**Q.** For C=C[C@]1(C)C[C@@H](OC(=O)CSCCN(CC)CC)[C@]2(C)[C@H](C)CC[C@]3(CCC(=O)[C@H]32)[C@@H](C)[C@@H]1O [TIAMULIN], which MIC (Staphylococcus aureus [1]) is on record?
**A.** 1 µg/mL (≈ 2.03 µM)

**Q.** And the MIC [2]?
**A.** 1 µg/mL (≈ 2.03 µM)

**Q.** What about the “fold change (FC)” value (Staphylococcus aureus [3]) of the same compound?
**A.** 64

**Q.** And the MIC (Streptococcus pneumoniae [4])?
**A.** 0.125 µg/mL (≈ 0.253 µM)

**Q.** And the Activity (Staphylococcus aureus [5])?
**A.** Active

**Q.** What about the Ratio (Staphylococcus aureus [6]) of the same compound?
**A.** 4

**Q.** And the Activity (Staphylococcus aureus [7])?
**A.** 1.23 log10CFU/g

**Q.** And the PAE (Staphylococcus aureus [8])?
**A.** 1.19 h

**Q.** What about the Activity (Staphylococcus aureus [9]) of the same compound?
**A.** 1.39 log10CFU/g

**Q.** What about the ED50 (Staphylococcus aureus [10]) of the same compound?
**A.** 28.9 mg/kg

**Q.** And the Ratio (Streptococcus pneumoniae [11])?
**A.** >4

**Q.** And the MIC (Enterococcus faecium [12])?
**A.** 0.125 µg/mL (≈ 0.253 µM)

**Q.** What about the MIC (Enterococcus faecium [13]) of the same compound?
**A.** 2 µg/mL (≈ 4.05 µM)

**Q.** And the Ratio [14]?
**A.** >4

**Q.** What about the MIC [15] of the same compound?
**A.** 0.125 µg/mL (≈ 0.253 µM)

**Q.** What about the Activity (Staphylococcus aureus [16]) of the same compound?
**A.** 2.05 log10CFU/g

**Q.** And the MIC (Staphylococcus aureus [17])?
**A.** 0.5 µg/mL (≈ 1.01 µM)

**Q.** What about the MIC (Staphylococcus aureus [18]) of the same compound?
**A.** 2 µg/mL (≈ 4.05 µM)

**Q.** And the MIC (Staphylococcus aureus [19])?
**A.** 0.5 µg/mL (≈ 1.01 µM)

**Q.** And the Ratio (Staphylococcus aureus [20])?
**A.** 4

**Q.** And the Ratio (Enterococcus faecium [21])?
**A.** 4

**Q.** What about the Activity (Staphylococcus aureus [22]) of the same compound?
**A.** 0.28 log10CFU/g

**Q.** And the Ratio (Enterococcus faecium [23])?
**A.** >4

**Q.** What about the MIC [24] of the same compound?
**A.** 2 µg/mL (≈ 4.05 µM)

**Q.** And the Ratio (Enterococcus faecium [25])?
**A.** 2

**Q.** And the Ratio (Staphylococcus aureus [26])?
**A.** 4

**Q.** And the Activity (Staphylococcus aureus [27])?
**A.** inactive

**Q.** And the MIC (Streptococcus pneumoniae [28])?
**A.** 0.25 µg/mL (≈ 0.506 µM)

**Q.** And the MIC (Enterococcus faecium [29])?
**A.** 0.5 µg/mL (≈ 1.01 µM)

**Q.** What about the Ratio (Staphylococcus aureus [30]) of the same compound?
**A.** >4

**Q.** And the PAE (Staphylococcus aureus [31])?
**A.** 1.07 h

**Q.** And the Activity (Staphylococcus aureus [32])?
**A.** 0.7 log10CFU/g

**Q.** And the “fold change (FC)” value (Staphylococcus aureus [33])?
**A.** 4

**Q.** What about the MIC (Staphylococcus aureus [34]) of the same compound?
**A.** 2 µg/mL (≈ 4.05 µM)

**Q.** And the Activity (Staphylococcus aureus [35])?
**A.** Active

Source: ChEMBL document CHEMBL6078666, “Discovery of Novel Coumarin Pleuromutilin Derivatives as Potent Anti-MRSA Agents” (J Med Chem, 2024)
